Measured values published in patent US20080262054A1, “Pharmaceutical Composition Containing Thiazolidinedione Compound” (priority 2005, published 2008).
Where a name gives a salt, the structure may show the parent alone.

Key:
[1] = Dissolution Rate Test 1 of Compound A (Test Example 1); assay type: physicochemical; details: JP first fluid, 37° C.
Method: About 40 mg of Compound A or a monohydrate of Compound A and a formulation excipient [one excipient is selected from the following excipients: 377.6 mg of lactose (Borculo Domo Ingredients), 78.0 mg of croscarmellose sodium (Ac-Di-Sol, FMC International), 15.6 mg of hydroxypropyl cellulose (HPC-L, Nippon Soda Co., Ltd.), 5.2 mg of magnesium stearate (NOF Corp.) and 0.112 mg of yellow ferric oxide (Kishi Kasei Co., Ltd.)] were added to 200 ml of Japanese Pharmacopoeia (JP) first fluid (7.0 ml of hydrochloric acid and water added to 2.0 g of sodium chloride followed by dissolving and bringing to a volume of 100 ml, normally used as a test liquid that imitates disintegration and elution of chemicals in the stomach) followed by stirring with a stirrer at 37° C. in a 300 ml conical beaker. 10 ml-samples were collected after 30 minutes, 1 hour, 3 hours and 6 hours followed by filtration using Acrodisk LC13 (PVDF, Gelman Science, Inc.). After discarding the first 3 ml, the next 7 ml were removed into a test tube. 5 ml of the sample in the test tube was taken with a whole pipette and transferred to a test tube containing 2 ml of methanol followed by mixing.
(§1) Quantification was carried out using HPLC, and solubility was determined from a calibration curve generated according to the method described below.
The calibration curve was generated by preparing methanol standard solutions of Compound A at concentrations of 400, 100 and 20 μg/ml, followed by the addition of 5 ml of JP first fluid to 2 ml of each standard solution, mixing and quantifying by HPLC.
Analytical column: L-column ODS (4.6 mm ID×15 cm, Chemicals Evaluation and Research Institute, Japan)
Mobile phase: 0.01 mol/1 mixture of acetate buffer (pH 5.0) and acetonitrile (13:7)
Column temperature: 40° C.
Detector: Ultraviolet absorption spectrophotometer (measuring wavelength: 290 nm)

[2] = Dissolution Rate Test 2 of Compound A (Test Example 2); assay type: physicochemical; details: JP first fluid, 37° C., subsequently to 1 hour (3 hours, 6 hours); FIG. 2
Method: Dissolution Rate Test 2 of 5-{4-[(6-methoxy-1-methyl-1H-benzimidazol-2-yl)methoxy]benzyl}thiazolidine-2,4-dione hydrochloride (Compound A) About 40 mg of Compound A or a monohydrate of Compound A and a formulation excipient [one excipient is selected from the following excipients: 23.9 mg of OPADRY II, 17.2 mg of polyvinyl alcohol (GOHSENOL GL-05, Nippon Synthetic Chemical Industry Co., Ltd.), and 23.9 mg of OPAGLOS 2] were added to 200 ml of Japanese Pharmacopoeia (JP) first fluid (7.0 ml of hydrochloric acid and water added to 2.0 g of sodium chloride followed by dissolving and bringing to a volume of 100 ml, normally used as a test liquid that imitates disintegration and elution of chemicals in the stomach) followed by stirring with a stirrer at 37° C. in a 300 ml conical beaker. 10 ml-samples were collected after 30 minutes, 1 hour, 3 hours and 6 hours followed by filtration using Acrodisk LC13 (PVDF, Gelman Science, Inc.). […]
as §1
The calibration curve was generated by preparing methanol standard solutions of Compound A at concentrations of 400, 100 and 20 μg/ml, followed by the addition of 5 ml of JP first fluid to 2 ml of each standard solution, mixing and quantifying by HPLC. […]

[3] = stirring, samples after 30 minutes, 1 hour, 3 hours and 6 hours, HPLC, FIG. 1

Row | SMILES | solubility [1, 3] | solubility ([1]; subsequently to 1 hour (3 hours, 6 hours)) | solubility [2]
1 | COc1ccc2nc(COc3ccc(CC4SC(=O)NC4=O)cc3)n(C)c2c1 (stereo not shown) [Compound A, 5-{4-[(6-methoxy-1-methyl-1H-benzimidazol-2-yl)methoxy]benzyl}thiazolidine-2,4-dione hydrochloride] | decrease over time | decreased rapidly | decreased rapidly
2 | COc1ccc2nc(COc3ccc(CC4SC(=O)NC4=O)cc3)n(C)c2c1.Cl.O (stereo not shown) [monohydrate, 5-{4-[(6-methoxy-1-methyl-1H-benzimidazol-2-yl)methoxy]benzyl}thiazolidine-2,4-dione hydrochloride (Compound A) monohydrate] | extremely low | – | –
